{"source": "patent US6235493A", "about": "“Amino acid substituted-cresyl violet, synthetic fluorogenic substrates for the analysis of agents in individual in vivo cells or tissue” (priority 1998, dated 2001)", "key": {"cathepsin B": {"molecular_target": "cathepsin B (Rattus norvegicus, UniProt P00787)", "sequence (P00787 80-333)": "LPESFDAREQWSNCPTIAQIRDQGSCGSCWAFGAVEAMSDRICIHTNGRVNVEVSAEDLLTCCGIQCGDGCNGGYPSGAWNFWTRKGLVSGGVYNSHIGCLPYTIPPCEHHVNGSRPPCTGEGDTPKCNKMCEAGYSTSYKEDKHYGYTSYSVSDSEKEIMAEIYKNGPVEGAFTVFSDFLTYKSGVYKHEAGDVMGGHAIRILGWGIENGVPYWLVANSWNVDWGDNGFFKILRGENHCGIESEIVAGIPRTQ", "assay": "Cathepsin B activity in homogenates of liver lobes of rats after oral FMK treatment", "format": "in vivo", "conditions": "20 mg FMK per kg body weight daily, 14 days, all four lobes", "experimental": "(§1) Sixteen rats were treated orally with 20 mg FMK per kg body weight dissolved in PBS and 5% dimethylformamide daily for 14 days starting one week before administration of the CC531 cells and continuing until sacrifice. Oral administration was performed directly into the stomach with a plastic tube attached to a syringe. Dosage and type of treatment were selected on the basis of previous experiments in which rats were treated with FMK-related inhibitors of cathepsins (34,40,53). The other 16 animals were treated similarly with PBS and dimethylformamide only. The LD50 of this type of FMK is at least 20-fold higher than the dosages used in the present experiment (40,53).\nCathepsin B activity was determined in homogenates obtained from each individual liver lobe of all rats according to Cox and Eley (56) with the use of the fluorogenic substrate CBZ-Ala-Arg-Arg-7-amino-4-trifluoromethylcoumarin (Enzyme Systems Products, Dublin, Calif.).\nWhether or not the two weeks of oral treatment with the inhibitor had the same effect on cathepsin B activity in all liver lobes was determined."}, "CC531 colon cancer cells": {"test_system": "CC531 colon cancer cells", "assay": "Colon cancer (CC531) metastasis in rat liver: number and volume of tumors per lobe", "format": "in vivo", "experimental": "Induction of Metastasis in Rat Liver\nColon carcinoma tumors were induced in rat liver by injection of a single cell suspension containing 1×10^6 CC531 cells into the portal vein of 32 mature male WAG-Rij rats, weighing 180-200 g (Broekman, Someren, The Netherlands) as described previously in detail (46,51,52).\nTreatment of Rats with FMK\nas §1\nPreparation of Cryostat Sections of Liver\nSeven days after administration of CC531 cells, the animals were weighed and sacrificed with an overdose of sodium pentobarbital. Livers were removed immediately, the individual lobes were weighed and dissected and cut into small pieces (up to 5 mm thick) according to a rigid dissection scheme. The left lateral lobe was cut into eight pieces, the median lobe into nine pieces, the right lateral and caudate lobes into four pieces. Tissue fragments were frozen in liquid nitrogen and the material was kept at -80° C. until further use. Twenty-one sites were randomly selected in all lobes of each liver before the experiments were carried out. From these sites, sections (8 μm thick) were cut on a motor-drivencryostat with a rotary retracting microtome (Bright, Huntingdon, UK) at a constant but low speed and a cabinet temperature of -25° C. Sections were picked up onto clean glass slides and stored in the cryostat cabinet until used. These methods have been described in detail in Reference 54.\nStaining of Tissue Sections\nTo facilitate recognition of cancer cells, cryostat sections were stained either with the periodic acid Schiff (PAS) reaction (54) or immunohistochemically using the lectin Ulex europaeus agglutinin I (Dako, Glostrup, Denmark), a selective marker of CC531 cells in rat (51,55). Immunocompetenet cells, endothelial cells and components of the extracellular matrix were localized with a panel of antibodies (Table 1) as described in detail by Griffini et al. (52). Control incubations were performed by replacing the first antibodies by non-immune sera in the same dilutions.\nFor calculation of the number and percentage volume of tumors in each liver lobe, the 8 micron thick sections were analyzed morphometrically using a Quantimet Q500 (Leica, Cambridge, UK) after staining with the lectin Ulex for the detection of cancer cells. The number of tumors was expressed per unit volume of liver tissue ±standard error of the mean or as ratio of the number of tumors in FMK-treated rats and those in untreated rats (×100). The percentage volume of tumors was expressed as the ratio of the volume of tumors and the total volume of the liver tissue including tumors ±standard error of the mean. Statistical analysis was performed with the 2-tailed Mann-Whitney test using the software program JPM (SAS Institute, Cary, N.C.).\nThe number of tumors is expressed per unit volume of liver tissue ± SEM or as the ratio of the number of tumors in treated rats compared with untreated rats (×100; %) as determined morphometrically in 8 μm thick cryostat sections stained with the lectin Ulex europaeus agglutinin I. Differences in number of tumors in left lateral and median lobes but not in right lateral and caudate lobes between treated and untreated animals were significant (P=0.006 and P=0.1, respectively). […]"}, "[1]": {"assay": "Body weight and liver weight of FMK-treated rats", "format": "in vivo, rat", "conditions": "20 mg FMK/kg daily oral 14 days", "experimental": "as §1\nSeven days after administration of CC531 cells, the animals were weighed and sacrificed with an overdose of sodium pentobarbital. Livers were removed immediately, the individual lobes were weighed and dissected and cut into small pieces (up to 5 mm thick) according to a rigid dissection scheme. The left lateral lobe was cut into eight pieces, the median lobe into nine pieces, the right lateral and caudate lobes into four pieces. […]\nSignificant differences between the caudate lobe and the other liver lobes with respect to the endothelial compartment or distribution patterns of extracellular matrix compounds (see Table 1 for specification of parameters investigated) could not be detected either."}, "[2]": {"conditions": "cited from earlier work"}, "[3]": {"conditions": "20 mg FMK/kg daily oral 14 days"}, "[4]": {"conditions": "+FMK, 20 mg/kg daily oral 14 days, ± SEM, n = 16"}, "[5]": {"conditions": "weighted by relative lobe wet weight"}}, "note": "Several values for one entry are separate records, joined by “and”; a condition that tells them apart may be missing. Identical values can stand only once. Starred links: 1 amine or outer side, 2 acyl side, 3 side chain; linkers in the order of their positions; H or OH if unused. Non-standard residues stand in square brackets, D forms with d. Residues, ends and D or L forms follow the SMILES beside them. *: point of attachment. hPhe = N[C@@H](CCc1ccccc1)C(=O)O; Morpholide = C1CN(*)CCO1; CO = O=C([*:1])[*:2]; CH2F = FC*", "data": [{"smiles": "O=C(CF)[C@H](CCc1ccccc1)NC(=O)[C@H](Cc1ccccc1)NC(=O)N1CCOCC1", "note": "[FMK, Mu-Phe-homoPhe-fluoro-methylketone] ({Morpholide-CO}-Phe-[hPhe]-CH2F)", "values": [{"measurement": "inhibition of cathepsin B activity in liver lobes", "setting": "cathepsin B", "result": "~50% and 51±14%"}, {"measurement": "ratio of number of tumors in treated vs untreated rats (×100), caudate lobe", "setting": "CC531 colon cancer cells; [3]", "result": 278, "unit": "%"}, {"measurement": "ratio of number of tumors in treated vs untreated rats (×100), left lateral lobe", "setting": "CC531 colon cancer cells; [3]", "result": 24, "unit": "%"}, {"measurement": "ratio of number of tumors in treated vs untreated rats (×100), median lobe", "setting": "CC531 colon cancer cells; [3]", "result": 24, "unit": "%"}, {"measurement": "ratio of number of tumors in treated vs untreated rats (×100), right lateral lobe", "setting": "CC531 colon cancer cells; [3]", "result": 91, "unit": "%"}, {"measurement": "ratio of percentage volumes in treated and untreated rats (×100), caudate lobe", "setting": "CC531 colon cancer cells; [3]", "result": 283, "unit": "%"}, {"measurement": "ratio of percentage volumes in treated and untreated rats (×100), left lateral lobe", "setting": "CC531 colon cancer cells; [3]", "result": 17, "unit": "%"}, {"measurement": "ratio of percentage volumes in treated and untreated rats (×100), median lobe", "setting": "CC531 colon cancer cells; [3]", "result": 3, "unit": "%"}, {"measurement": "ratio of percentage volumes in treated and untreated rats (×100), right lateral lobe", "setting": "CC531 colon cancer cells; [3]", "result": 35, "unit": "%"}, {"measurement": "average size of tumors in large lobes, treated relative to untreated", "setting": "CC531 colon cancer cells; 20 mg FMK/kg per day", "result": 40, "unit": "%"}, {"measurement": "effect on number of tumors in the caudate lobe", "setting": "CC531 colon cancer cells; 20 mg FMK/kg per day", "result": "increased rather than decreased, although the difference was not significant"}, {"measurement": "effect on size of tumors in the caudate lobe", "setting": "CC531 colon cancer cells; 20 mg FMK/kg per day", "result": "not affected"}, {"measurement": "number of tumors per unit volume in caudate lobe vs other lobes in treated rats", "setting": "CC531 colon cancer cells; 20 mg FMK/kg per day", "result": 20, "unit": "fold"}, {"measurement": "reduction of total volume of tumors in the large lobes (average)", "setting": "CC531 colon cancer cells; 20 mg FMK/kg per day", "result": 80, "unit": "%"}, {"measurement": "reduction of number of tumors in the large lobes (average)", "setting": "CC531 colon cancer cells; 20 mg FMK/kg per day, one week before until one week after cells", "result": 60, "unit": "%"}, {"measurement": "number of tumors, caudate lobe", "setting": "CC531 colon cancer cells; [4]", "result": "14.2 ± 7.5 per unit volume of liver tissu"}, {"measurement": "number of tumors, left lateral lobe", "setting": "CC531 colon cancer cells; [4]", "result": "0.5 ± 0.2 per unit volume of liver tissu"}, {"measurement": "number of tumors, median lobe", "setting": "CC531 colon cancer cells; [4]", "result": "0.4 ± 0.2 per unit volume of liver tissu"}, {"measurement": "number of tumors, right lateral lobe", "setting": "CC531 colon cancer cells; [4]", "result": "1.0 ± 0.4 per unit volume of liver tissu"}, {"measurement": "percentage volume of tumors, caudate lobe", "setting": "CC531 colon cancer cells; [4]", "result": "49.8 ± 38.5", "unit": "%"}, {"measurement": "percentage volume of tumors, left lateral lobe", "setting": "CC531 colon cancer cells; [4]", "result": "1.4 ± 0.5", "unit": "%"}, {"measurement": "percentage volume of tumors, median lobe", "setting": "CC531 colon cancer cells; [4]", "result": "0.3 ± 0.6", "unit": "%"}, {"measurement": "percentage volume of tumors, right lateral lobe", "setting": "CC531 colon cancer cells; [4]", "result": "1.1 ± 0.2", "unit": "%"}, {"measurement": "effect on number or size of metastases, caudate lobe", "setting": "CC531 colon cancer cells; in vivo treatment with FMK", "result": "does not reduce number or size of metastases"}, {"measurement": "reduction of mean number of tumors in the entire liver", "setting": "CC531 colon cancer cells; [5]", "result": 35, "unit": "%"}, {"measurement": "reduction of mean volume of tumors in the entire liver", "setting": "CC531 colon cancer cells; [5]", "result": 57, "unit": "%"}, {"measurement": "effect on body weight, total liver weight or weight of individual lobes", "setting": "[1]", "result": "did not affect body weight, total liver weight or the weight of the individual lobes"}, {"measurement": "toxicity", "setting": "[2]", "result": "non-toxic"}, {"measurement": "LD50 relative to the dosages used (20 mg/kg)", "setting": "[2]; this type of FMK", "result": "at least 20 fold"}]}]}
